Measured values from patent US9910031B2, “Compositions and methods for modulating c-Rel-dependent cytokine production” (Synta Pharmaceuticals Corporation, priority 2003, dated 2018).

How the values were obtained:
IL-12 p40 mRNA = test: Northern blot of IL-12 p40 mRNA in IFN-γ/SAC-stimulated THP-1 cells; format: cell-based, human; settings: THP-1, IFN-γ/SAC, 1 μM Compound 1
Experimental: Northern blot analysis was performed to examine the mRNA levels of IL-12 p35 and p40. Human PBMC and the human monocyte cell line THP-1 cells were stimulated with IFN-γ/SAC in the presence or absence of Compound 1. Human PBMC were isolated by centrifugation using Ficoll-Paque (Pharmacia Biotech, Uppsala, Sweden) and prepared in RPMI medium supplemented with 10% fetal calf serum (FCS), 100 U/ml penicillin, and 100 μg/ml streptomycin, in a 96-well plate with 5×10^5 cells/well. The cells were then primed with IFN-γ (100 U/ml) and followed by 0.01% SAC or 1 μg/ml LPS, in the presence of different concentrations of Compound 2 or other compounds. The test compounds were prepared in DMSO and the final DMSO concentration was adjusted to 0.25% in all cultures, including the compound-free control. Cell-free supernatants were taken 18 h later for the measurement of cytokines. The THP-1 cells were obtained from American Type Culture Collection (Manassas, Va.) and were cultured in RPMI 1640 (ATCC, Manassas, Va.), supplemented with 10% FCS (ATCC, Manassas, Va.), and 1% penicillin/Streptomycin (Gibco-BRL, New York, N.Y.). Total RNA was isolated and subjected to Northern blot analysis using IL-12 p35 and p40 cDNA probes. We first examined the kinetics of mRNA accumulation in cultures of hPBMC and THP-1 cells primed with IFN-γ followed by SAC stimulation in the presence or absence of 1 μM Compound 1.

NFκB = test: Gel-shift assay of NFκB binding to the IL-12 p40 promoter site, THP-1 nuclear extracts; format: cell-based, human; settings: IFN-γ-primed, SAC-stimulated THP-1; 1 μM Compound 1 or 10 mM ASA
Experimental: Nuclear extracts were prepared from IFN-γ-primed THP-1 cells that had been treated with or without SAC and incubated in the presence or absence of 1 μM Compound 1 or 10 mM ASA. Isolation of nuclear extracts was accomplished by first suspending THP-1 cells in 20 volumes of buffer A containing 10 mM KCl, 10 mM HEPES (pH 7.9), 1 mM MgCl2, 1 mM dithiothreitol (DTT), 0.1% Nonidet p40 (NP-40), and 0.5 mM phenylmethylsulfonyl fluoride (PMSF) and then homogenizing and centrifuging at 10,000 rpm at 4° C. for 5 min. Nuclear pellets were then suspended in buffer C containing 400 mM NaCl, 20 mM HEPES pH 7.9), 15 mM MgCl2, 0.2 mM EDTA, 1 mM DTT, 25% glycerol, 1 mM PMSF, and 10 μg of leupeptin, 20 μg of pepstatin, and 10 μg of antipain per ml, incubated for 30 min at 4° C., and centrifuge at 14,000 rpm for […]. The supernatants were dialyzed against buffer D containing 100 mM NaCl, 20 mM HEPES (pH 7.9), 20% glycerol, 1 mM PMSF, and 1 mM DTT.
The extracts obtained from this process were used in gel-shift assays using oligonucleotides containing the NFκB target sequence corresponding to the region −121 to −102 from the transcription initiation site of IL-12 p40 or a mutated NFκB binding site. […] This interaction was specific as it was competed away by an excess of unlabeled probe, but not by a mutated oligonucleotide in which two base-pairs were substituted. […]

## C(=NNc1nc(OCCc2ccccn2)nc(N2CCOCC2)n1)c1c[nH]c2ccccc12 [Compound 1, N-(1H-indol-3-ylmethylene)-N′-[4-morpholin-4-yl-6-(2-pyridin-2-yl-ethoxy)-[1,3,5]triazin-2-yl]-hydrazine]
IL-12 p40 mRNA
  expression of the p40 message: significantly but incompletely reduced
NFκB
  NFκB binding to p40 promoter probe (gel shift): did not show any influence
